How the values were obtained:
rat immunoglobulins = experiment: ELISA: antibodies of rat sera to Mycobacterial HSP 65 and its peptides; type: binding
DBA/1 mice = experiment: Modulation of collagen arthritis in DBA/1 mice; type: in vivo, mouse; conditions: active vaccination
Lewis rats [1] = experiment: Modulation of Adjuvant Arthritis by pre-immunization with HSP peptides; type: in vivo, rat; conditions: 3 IP injections at one week intervals before AA induction with MT, FIG. 4
Lewis rats [2] = experiment: Anti HSP antibodies in Lewis rats immunized with HSP peptides (ELISA); type: in vivo, rat; conditions: 100 μg peptide in PBS, 3 times IP
Protocol: ELISA: Flat-bottomed 96 well plates (Corning) were coated with mammalian HSP 60 or Mycobacterial HSP 65 (10 μg/ml) in carbonate buffer pH 9.6 overnight at 4° C.
HSP peptides were attached to plates pre-treated with glutaraldehyde according to Kasprzyk et al.. Shortly, plates were coated with 100 μl/well of 5% w/v of glutaraldehyde in PBS for 1 hour at room temp. Plates were washed thoroughly with PBS and peptides (1 μg/100 μl) were added to each well, incubated overnight at 4° C. Plates were shaken dry and blocked with BSA 1% in PBS.
Plates coated with either HSP or peptides were washed again and incubated with rat sera diluted 1:100 with PBS-Tween 0.01% for 90 min. at room temp. After re-washing the plates were incubated with Goat anti rat IgG or IgM conjugated to alkaline-phosphatase for 60 min. at room temp. […] Optical density was measured photometrically at 405 nm.
Modulation of AA by mycobacterial and mammalian HSP peltides: HSP 65 derived peptides were tested for their ability to modulate the appearance or severity of AA in Lewis rats. Rats were immunized with 100 μg of each peptide in PBS, three weeks (3W), 2W and 1W before induction of AA by MT. Control rats received PBS. Rats were bled for testing antibody presence before injection of MT and 30 days post MT injection.
To test whether active immunization with bacterial or mammalian HSP peptides that are recognized by protective immunoglobulins can induce protection against AA, Lewis rats were immunized with the mycobacterial peptides 6, 7, 21, 31, 36, 45, 84, that bound antibodies from resistant Lewis rats (“protective” peptides), with some non-reactive mycobacterial HSP 65 peptides: peptide 26 (residues 151-166), 28 (residues 163-178) or peptide 70 (residues 415-430), and with the mammalian peptide 5.
Rats were injected 3 times intraperitoneally (IP), with one week intervals between injections before induction of AA with MT.

NOD mice = experiment: Peptide 6 immunization of NOD mice: onset of diabetes and antibodies by ELISA; type: in vivo, mouse
Protocol: Naive NOD mice were immunized 3 times intradermally (I.D.) with 100 μg peptide 6 (SEQ ID: No. 2) in CFA and IFA. Control mice received PBS. Mice were monitored for the onset of diabetes by glucose test and for anti-peptide 6 or anti-HSP 65 antibodies by ELISA. Mice immunized with the peptide developed anti-peptide 6 as well as anti-HSP 65 antibodies as detected by OD (1.52±0.07 and 1.43±0.13 respectively) in comparison to CFA immunized mice (0.05±0.01 and 0.01±0.01) and control mice (0.09±0.06 and 0.16±0.16).
To test whether active immunization with the bacterial HSP peptide 6 (SEQ ID: No. 2) can induce protective immunoglobulins against other autoimmune disorders, for instance autoimmune diabetes, NOD mice were immunized with the mycobacterial peptide 6 (“protective” peptide). Naive NOD mice were immunized 3 times I.D. with either 100 μg peptide 6 in CFA and IFA or PBS (control). Mice were monitored for the onset of diabetes by glucose test (appearance of hyperglycemia) and for anti-peptide 6 or […] antibodies by ELISA. Mice immunized with the peptide developed anti-peptide 6 as well as anti-HSP 65 antibodies as reflected by OD (1.52±0.07 and 1.43±0.13 respectively) in comparison to CFA immunized mice (0.05±0.Oland 0.01±0.01) and control mice (0.09±0.06 and 0.16±0.16).

[3] = NOD mice immunized 3 times I.D. with 100 μg peptide 6 in CFA and IFA, ELISA

GPKGRNVVLEKKWGAP [Peptide 6]
Antibodies to Mycobacterial HSP 65 Peptides (rat immunoglobulins; strain BN-6w): + (0.16-0.45 = +)
Antibodies to Mycobacterial HSP 65 Peptides (rat immunoglobulins; strain Lew-4m): + (0.16-0.45 = +)
Antibodies to Mycobacterial HSP 65 Peptides (rat immunoglobulins; strain Lew-6w): − (<O. 15 = −)
Antibodies to Mycobacterial HSP 65 Peptides (rat immunoglobulins; strain Lew-9m): + (0.16-0.45 = +)
Antibodies to Mycobacterial HSP 65 Peptides (rat immunoglobulins; strain Lew-Post AA): +++ (>0.75 = +++)
murine collagen arthritis (DBA/1 mice): suppressed significantly
AA disease severity after pre-immunization (Lewis rats [1]): significant suppression of disease severity
Anti HSP Antibodies in Immunized Lewis Rats, Antigen M5 (Lewis rats [2]; antigen M5): − (<O. 15 = −)
Anti HSP Antibodies in Immunized Lewis Rats, Antigen MT-HSP 65 (Lewis rats [2]; antigen MT-HSP 65): ++ (0.46-0.75 = ++)
Anti HSP Antibodies in Immunized Lewis Rats, Antigen 6 (Lewis rats [2]; antigen peptide 6): ++ (0.46-0.75 = ++)
Anti HSP Antibodies in Immunized Lewis Rats, Antigen 7 (Lewis rats [2]; antigen peptide 7): − (<O. 15 = −)
anti-HSP 65 antibodies (NOD mice; [3]): 1.43±0.13 OD
anti-peptide 6 antibodies (NOD mice; [3]): 1.52±0.07 OD
appearance of the diabetic symptoms (NOD mice; NOD mice, glucose test, FIG. 7): clearly delayed
number of sick mice (NOD mice; NOD mice, peptide-6 vaccinated group): significantly lowered
diabetes disease severity (NOD mice; NOD mice, FIG. 7): significantly reduced

Source: US7488476B2, “B-cell epitope peptides of HSP 65, DNA encoding said peptides, antibodies directed against said peptides and the different uses thereof in the treatment of inflammatory and autoimmune diseases” (priority 1998, dated 2009)
